Test results: patent US7767645B2, “SH2 domain binding inhibitors” (The United States of America as represented by the …, priority 2003, dated 2010)

How the values were obtained:
[1] = target: T1, Grb2 SH2 domain protein (b-Grb2) (Homo sapiens, UniProt P62993); experiment: Surface Plasmon Resonance (SPR) determination of Grb2 SH2 domain-binding Kd values; conditions: BIACORE S51, immobilized biotinylated Grb2 SH2 domain, 25° C., PBS pH 7.4
T1 construct: All Biotinylated Grb2 SH2 domain protein (b-Grb2) was expressed and purified; biotin (biotinylated)
T1 sequence (P62993 60-152 limits assumed): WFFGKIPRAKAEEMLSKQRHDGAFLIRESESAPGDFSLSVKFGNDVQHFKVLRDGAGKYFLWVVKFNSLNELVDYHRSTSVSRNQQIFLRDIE
Experimental: Binding affinities were determined as follows. Surface Plasmon Resonance (SPR) Determination of Grb2 SH2 Domain-Binding Kd Values. Binding experiments were performed on a BIACORE S51 instrument (Biacore Inc., Piscataway N.J.). All Biotinylated Grb2 SH2 domain protein (b-Grb2) was expressed and purified (Protein Expression Laboratory and The Protein Chemistry Laboratory, SAIC—Frederick). The b-Grb2 was immobilized onto carboxymethyl 5′ dextran surface (CM5 sensor chip, Biacore Inc.) by amine coupling. The lyophilized b-Grb2 was reconstituted in fifty percent DMSO in H2O to make a stock solution of 1 mg/mL and stored at −80° C. A 1:12.5 dilution of b-Grb2 was used for immobilization and prepared by dilution in acetate buffer pH-5.0, with 5% DMSO. 1×PBS (phosphate buffered saline, pH 7.4) was used as the running buffer.
An immobilization wizard was used to facilitate immobilization targeting. For b-Grb2, 2500-5000 resonance units (RU) of protein were captured on the CM5 sensor chip. Small molecule ligands were serially diluted in running buffer to concentrations of 1.25 nM-1500 nM, as described in each sensorgram and injected at 25° C. at a flow rate of 30 μl/min for 1 minute and dissociation was monitored for an additional 3 minutes. Surface regeneration was not used. Samples of differing concentrations of small molecule ligands were injected in increasing concentration, with every injection being performed in duplicate within each experiment. In order to subtract background noise from each data set, all samples were also run over an unmodified reference surface and injections of running buffer were performed throughout every experiment (“double referencing”). Up to six data sets were fit to a simple 1:1 interaction model or to a surface heterogeneity model (“complex model”) for compound 41, using the global data analysis program CLAMP. Myszka, D. G.; Morton, T. A.; CLAMP: A biosensor kinetic data analysis program. Trends Biochem. Sci. 1998, 23, 149-150. The mean of the ratio and associated error were calculated according to known procedures. van Kempen, G. M.; van Vliet, L. J.; Mean and variance of ratio estimators used in fluorescence ratio imaging. Cytometry 2000, 39, 300-305.

[2] = target: T2, Grb2 SH2 domain-MBP fusion protein (Homo sapiens, UniProt P62993); experiment: ELISA-based determination of Grb2 SH2 domain-binding IC50 values; conditions: competition with HRP-SA-biotinylated-phosphopeptide complex
T2 construct: is added biotinylated Grb2 SH2 domain-MBP fusion protein; biotin (biotinylated)
T2 sequence (P62993 60-152 limits assumed): as above
Experimental: ELISA-Based Determination of Grb2 SH2 Domain-Binding IC50 Values. To multiwell plates pre-coated with streptavidin (SA) is added biotinylated Grb2 SH2 domain-MBP fusion protein. SH2 domain-fusion protein binds to the SA on the plate and unbound protein is then washed away and the plate is blocked using the commercial ELISA blocking agent, I-Block that contains detergent and casein (a milk protein). This blocking agent prevents subsequently-added constituents from sticking to the plastic well non-specifically. To the wells is then added horseradish peroxidase-(HRP)-SA-biotinylated-phosphopeptide as a pre-formed complex (termed “Complex”). [NOTE: The HRP-SA-biotinylated phosphopeptide complex is prepared ahead of time by combining a vast molar excess of SA-HRP with the biotinylated phosphopeptide to assure that all of the biotin sites are bound to SA-HRP before they are added to the well. This prevents those biotin sites from sticking to the SA coating on the plate, which would generate a signal even in the absence of biotinylated Grb2 SH2 domain-MBP fusion protein.] This complex binds to the Grb2 SH2 domain via the phosphopeptide. Unbound Complex is washed away before adding HRP substrate (OPD) to generate a color that is measured spectrophotometrically. Synthetic SH2 domain binding antagonists, at various concentrations, are added to wells in the presence of Complex to compete for HRP-SA-biotinylated-phosphopeptide binding to Grb2 SH2 domain protein. The intensity of the resulting color for each well as a function of the concentration of synthetic inhibitor added is recorded.

Row | SMILES | Kd [1] | IC50 [2]
1 | Cc1ccc2c(ccn2CC2CC=CC(c3ccc(CP(=O)(O)O)cc3)C(CC(=O)O)C(=O)NC3(CCCCC3)C(=O)NC(CC(N)=O)C(=O)NC2)c1 (centres unmarked) [Compound 6] | 1.67 nM | 
2 | Cc1ccc2c(ccn2CC2CC=CC(c3ccc(NC(=O)C(=O)O)cc3)C(CC(=O)O)C(=O)NC3(CCCCC3)C(=O)NC(CC(N)=O)C(=O)NC2)c1 (centres unmarked) [Compound 28] | 67 nM | 8.8 nM
3 | Cc1ccc2c(ccn2CC2CC=CC(c3ccc(C(C(=O)O)C(=O)O)cc3)C(CC(=O)O)C(=O)NC3(CCCCC3)C(=O)NC(CC(N)=O)C(=O)NC2)c1 (centres unmarked) [Compound 32] | 3.62 nM | 3.3 nM
4 | Cc1ccc2c(ccn2CC2CC=CC(c3ccc(CC(=O)O)cc3)C(CC(=O)O)C(=O)NC3(CCCCC3)C(=O)NC(CC(N)=O)C(=O)NC2)c1 (centres unmarked) [Compound 33] |  | 22.5 nM
5 | Cc1ccc2c(ccn2CC2CC=CC(c3ccc(CP(=O)(O)Cc4ccccc4)cc3)C(CC(=O)O)C(=O)NC3(CCCCC3)C(=O)NC(CC(N)=O)C(=O)NC2)c1 (centres unmarked) [Compound 41] | 35.3 nM | 8.4 nM
